This is an account of results in ChEMBL document CHEMBL1201862, “PubChem BioAssay data set” (2004).

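Step 1: Grow cells in 96-well plates. Step 2: Expose to compound for 48 hours at 5 concentrations. Step 3: Interpolate endpoints linearly; if unreached, use highest concentration. GI50 = concentration required for 50% inhibition of growth.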 Calls of active or inactive are those of the source. No stated cut-off is given here; in the data, active = GI50 up to about 1.1 µM and inactive = higher.

Test systems include Malme-3M; U-251; IGROV-1; NCI-H226; DU-145; ACHN; SK-MEL-28; SF-268; M14; MDA-MB-435; SNB-19; OVCAR-5; UO-31; NCI/ADR-RES; MDA-MB-231; SK-OV-3; EKVX; RXF 393; RPMI-8226.
Common to all, as to test: DTP human tumour cell line panel, 48 h

Take `O=C(CCCn1ccnc1[N+](=O)[O-])NCCn1ccnc1`: the GI50 with Malme-3M, in the assay on U-251, with IGROV-1, with NCI-H226, with DU-145 and in the assay with ACHN was > 100 µM (inactive) throughout. For the same compound, the GI50 in the assay on SK-MEL-28, in the assay on SF-268, in the assay on M14, in the assay on MDA-MB-435, in the assay on SNB-19 and in the assay on OVCAR-5 was > 100 µM (inactive) in each case. For the same compound, the GI50 in the assay on UO-31, in the assay with NCI/ADR-RES, with MDA-MB-231 and with SK-OV-3 was > 100 µM (inactive) in each case.
For the compound `O=[N+]([O-])c1ccc(OP(=O)(O)OCC2OC(CP(=O)(O)O)C(O)C2O)cc1` (stereo not drawn), the GI50 in the assay with EKVX, with U-251, in the assay with IGROV-1, with DU-145, in the assay on ACHN and with SK-MEL-28 was > 100 µM (inactive) throughout. Further, the GI50 in the assay on SF-268, in the assay on M14, with MDA-MB-435, in the assay on SNB-19, in the assay on RXF 393 and in the assay on OVCAR-5 was > 100 µM (inactive) each time. The GI50 in the assay with UO-31, in the assay with NCI/ADR-RES and in the assay on MDA-MB-231 was > 100 µM (inactive) throughout.
Consider `CN(C)CCNC(=O)Cn1cnc2cccc([N+](=O)[O-])c2c1=O`, for which the GI50 in the assay with Malme-3M, in the assay on EKVX, with U-251, with IGROV-1, in the assay with NCI-H226 and in the assay on DU-145 was > 100 µM (inactive) in each case. Further, the GI50 with ACHN, in the assay on SK-MEL-28, with SF-268, with M14, in the assay with MDA-MB-435 and with RPMI-8226 was > 100 µM (inactive) each time. Besides, the GI50 in the assay with SNB-19, in the assay with RXF 393, in the assay on OVCAR-5, in the assay with UO-31, with NCI/ADR-RES and with SK-OV-3 was > 100 µM (inactive) in each case.
Regarding `O[C@H]1[C@H](O)[C@@H](O)[C@@]2(O)CC[C@@H]1N2`, the GI50 with Malme-3M, with EKVX, in the assay on U-251, with IGROV-1, in the assay on NCI-H226 and in the assay with DU-145 was > 100 µM (inactive) throughout. Further, the GI50 in the assay on ACHN, in the assay with SK-MEL-28, with SF-268, with M14, in the assay on MDA-MB-435 and in the assay on SNB-19 was > 100 µM (inactive) throughout. Further, the GI50 in the assay with RXF 393, in the assay on OVCAR-5, in the assay on UO-31, in the assay with NCI/ADR-RES, in the assay with MDA-MB-231 and in the assay with SK-OV-3 was > 100 µM (inactive) each time.
Turning to `O=C(CC1(O)C(=O)Nc2c(Cl)ccc(Cl)c21)c1ccc(F)cc1` (stereo not drawn), the GI50 is 69.5 µM (inactive) in the assay on Malme-3M; 44.4 µM (inactive) with EKVX; 67.3 µM (inactive) with U-251; 24.8 µM (inactive) with NCI-H226; 66.1 µM (inactive) in the assay with ACHN; > 100 µM (inactive) in the assay with SK-MEL-28. Further, the GI50 in the assay with SF-268 is 36.1 µM (inactive); in the assay on M14 it was 38.8 µM (inactive); in the assay with RPMI-8226 it was 18 µM (inactive); in the assay with SNB-19, 46.6 µM (inactive); in the assay with RXF 393, 29.5 µM (inactive); in the assay with OVCAR-5, > 100 µM (inactive). The GI50 in the assay with UO-31 was 44.5 µM (inactive); in the assay with SK-OV-3, > 100 µM (inactive).
For `Nc1nc(Cl)cc(NCC2(CO)CC=CC2)n1`, the GI50 in the assay on Malme-3M was > 100 µM (inactive); with EKVX, 71 µM (inactive); in the assay on U-251, > 100 µM (inactive); with IGROV-1, > 100 µM (inactive); with NCI-H226 it was > 100 µM (inactive); in the assay with DU-145, > 100 µM (inactive). Moreover, the GI50 in the assay on ACHN is > 100 µM (inactive); with SK-MEL-28, > 100 µM (inactive); in the assay with SF-268, > 100 µM (inactive); in the assay on MDA-MB-435, > 100 µM (inactive); in the assay on SNB-19, > 100 µM (inactive); in the assay on RXF 393 it was 33.1 µM (inactive). Also, the GI50 with OVCAR-5, in the assay with UO-31, with NCI/ADR-RES, with MDA-MB-231 and with SK-OV-3 was > 100 µM (inactive) throughout.
On to `CCOC(=O)/C(=C\NCC(O)c1ccccc1)c1nc2ccccc2[nH]1` (stereo not drawn), for which the GI50 is 25.6 µM (inactive) in the assay with Malme-3M; 21.3 µM (inactive) in the assay with EKVX; 20.1 µM (inactive) with IGROV-1; 28.4 µM (inactive) in the assay with DU-145; 11 µM (inactive) with ACHN; 17.2 µM (inactive) in the assay on SK-MEL-28. In addition, the GI50 in the assay on SF-268 was 17.3 µM (inactive); with M14, 30.4 µM (inactive); in the assay with MDA-MB-435, 20.9 µM (inactive); in the assay on RPMI-8226 it was 11.3 µM (inactive); in the assay with SNB-19, 48.9 µM (inactive); in the assay with RXF 393, 27.4 µM (inactive). For the same compound, the GI50 in the assay with OVCAR-5 is 26.4 µM (inactive); in the assay with UO-31, 0.103 µM (active); in the assay with NCI/ADR-RES, 20.8 µM (inactive); in the assay on SK-OV-3, 31.8 µM (inactive).
With `CCNC(=S)N/N=C/c1cc([N+](=O)[O-])ccc1O`, the GI50 was 26.5 µM (inactive) in the assay with Malme-3M; 30.4 µM (inactive) with EKVX; 16.9 µM (inactive) in the assay with U-251; 22.4 µM (inactive) with IGROV-1; 27.9 µM (inactive) in the assay on NCI-H226; 83.4 µM (inactive) with DU-145. For the same compound, the GI50 in the assay on ACHN was 25.8 µM (inactive); with SK-MEL-28, 51.8 µM (inactive); in the assay with SF-268 it was 24.3 µM (inactive); in the assay on M14, 33.7 µM (inactive); in the assay on MDA-MB-435 it was 37.2 µM (inactive); in the assay with SNB-19, 34.1 µM (inactive). The GI50 in the assay with RXF 393 is 62.2 µM (inactive); with OVCAR-5, > 100 µM (inactive); with UO-31, 22.3 µM (inactive); in the assay on NCI/ADR-RES it was 21.8 µM (inactive); in the assay on MDA-MB-231 it was 33 µM (inactive); in the assay with SK-OV-3, 15 µM (inactive).
For `COC(=O)c1sc(=S)sc1SCc1ccc(CSc2sc(=S)sc2C(=O)OC)cc1`, the GI50 in the assay on Malme-3M, in the assay with EKVX, with U-251, with IGROV-1, in the assay with NCI-H226 and in the assay on DU-145 was > 100 µM (inactive) in each case. For the same compound, the GI50 with ACHN, in the assay on SK-MEL-28, in the assay with SF-268, in the assay on M14, in the assay with MDA-MB-435 and with SNB-19 was > 100 µM (inactive) in each case. Besides, the GI50 in the assay with RXF 393, in the assay with OVCAR-5, in the assay on UO-31, with NCI/ADR-RES, in the assay on MDA-MB-231 and in the assay on SK-OV-3 was > 100 µM (inactive) in each case.
As to `COC(=O)Cn1cnc2c(Cl)nc(Nc3ccccc3)nc21`, the GI50 in the assay with Malme-3M is 54.3 µM (inactive); with EKVX, 27 µM (inactive); in the assay with U-251, 66.7 µM (inactive); in the assay with IGROV-1, 20.8 µM (inactive); in the assay with NCI-H226, > 100 µM (inactive); in the assay with ACHN, > 100 µM (inactive). For the same compound, the GI50 in the assay with SK-MEL-28 was 27.4 µM (inactive); in the assay on SF-268, > 10 µM (inactive); in the assay with M14, 29 µM (inactive); in the assay with MDA-MB-435 it was 26.7 µM (inactive); in the assay on RPMI-8226, > 100 µM (inactive); in the assay with SNB-19, 67.9 µM (inactive). Further, the GI50 was 36.6 µM (inactive) in the assay on RXF 393, 73.3 µM (inactive) in the assay with NCI/ADR-RES, 38 µM (inactive) in the assay on MDA-MB-231 and > 100 µM (inactive) in the assay on SK-OV-3.
As to `O=C(NNC(=S)Nc1ccccc1)c1csc(NC(=S)NC2CCCCC2)n1`, the GI50 in the assay on Malme-3M was > 100 µM (inactive); in the assay on EKVX it was 20.1 µM (inactive); in the assay on U-251, 48.4 µM (inactive); with IGROV-1 it was 29.5 µM (inactive); with NCI-H226 it was 9.59 µM (inactive); in the assay with DU-145, > 100 µM (inactive). Further, the GI50 with ACHN was > 100 µM (inactive); with SF-268 it was 99.3 µM (inactive); with M14, 69.8 µM (inactive); in the assay on MDA-MB-435, 35.5 µM (inactive); in the assay with RPMI-8226 it was 28.8 µM (inactive); in the assay on OVCAR-5, > 100 µM (inactive). Besides, the GI50 was 16.1 µM (inactive) in the assay on UO-31, 85.7 µM (inactive) with NCI/ADR-RES, 46.3 µM (inactive) in the assay on MDA-MB-231 and > 100 µM (inactive) with SK-OV-3.
For the compound `Cc1ccc(S(=O)(=O)N2CCN(S(=O)(=O)c3ccc(C)cc3)Cc3ccccc3C2)cc1`, the GI50 is > 100 µM (inactive) with Malme-3M; > 100 µM (inactive) with EKVX; > 100 µM (inactive) with IGROV-1; 60.3 µM (inactive) in the assay on NCI-H226; > 100 µM (inactive) in the assay with DU-145; 36.9 µM (inactive) in the assay on ACHN. The GI50 in the assay with SK-MEL-28 is > 100 µM (inactive); with SF-268, 81.1 µM (inactive); with M14, 33 µM (inactive); in the assay with MDA-MB-435 it was 34.3 µM (inactive); in the assay on RPMI-8226 it was > 100 µM (inactive); in the assay on SNB-19, 21.6 µM (inactive). For the same compound, the GI50 in the assay with OVCAR-5 is > 10 µM (inactive); in the assay with UO-31, > 100 µM (inactive); with NCI/ADR-RES it was > 100 µM (inactive); with MDA-MB-231, > 100 µM (inactive).

In general, GI50 refers to the concentration at which growth is held to half of that of the control.
